Molecular target: T1, rDer f 2 (Dermatophagoides farinae, UniProt Q00855)
T1 construct: gene DERF2
T1 sequence (Q00855 18-146): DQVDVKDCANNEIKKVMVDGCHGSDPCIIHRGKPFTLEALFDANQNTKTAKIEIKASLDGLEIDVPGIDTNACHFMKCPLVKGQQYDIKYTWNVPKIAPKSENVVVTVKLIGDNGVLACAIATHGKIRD
Assay: lipid ELISA on immobilized lipid, polyclonal anti-allergen IgG detection
Type: binding
Details: 0.5 ug/mL protein; lipid coated 0.02-6.40 nmol/well; PBS, 1% BSA block; 1 h

In the case of `CC(C)CCC[C@@H](C)[C@H]1CC[C@H]2[C@@H]3CC=C4C[C@@H](O)CC[C@]4(C)[C@H]3CC[C@]12C` [cholesterol], the “lipid ELISA on immobilized lipid, polyclonal anti-allergen IgG detection” value is reported as “also showed dose-dependent binding to cholesterol, but not POPG”.

Source: paper PMC6367342, “The major allergen Der p 2 is a cholesterol binding protein” (Scientific Reports, 2019)
